Results as given in article PMC3694096, “Development of Novel In Vivo Chemical Probes to Address CNS Protein Kinase Involvement in Synaptic Dysfunction” (PLoS ONE, 2013).
Like-named read-outs stand apart in the source and are kept apart here.

Tests used:
[1] = biological target: T1, Abl(T315I) (Homo sapiens, UniProt P00519, T315I); test: Kinome profiler screen; format: biochemical; settings: at 20,000 nM inhibitor; kinase activity remaining
T1 construct: purchased Millipore KinaseProfiler

[2] = biological target: T2, Abl(Y253F) (Homo sapiens, UniProt P00519, Y253F); test: Kinome profiler screen; format: biochemical; settings: at 20,000 nM inhibitor; kinase activity remaining
T2 construct: purchased Millipore KinaseProfiler

[3] = biological target: T3, AMPKα1 (Homo sapiens, UniProt Q13131); test: Kinome profiler screen; format: biochemical; settings: at 20,000 nM inhibitor; kinase activity remaining
T3 construct: purchased Millipore KinaseProfiler

[4] = biological target: T4, ARK5 (Homo sapiens, UniProt O60285); test: Kinome profiler screen; format: biochemical; settings: at 20,000 nM inhibitor; kinase activity remaining
T4 construct: purchased Millipore KinaseProfiler

[5] = biological target: T5, Aurora-A (Homo sapiens, UniProt O14965); test: Kinome profiler screen; format: biochemical; settings: at 20,000 nM inhibitor; kinase activity remaining
T5 construct: purchased Millipore KinaseProfiler
T5 sequence (O14965 whole entry): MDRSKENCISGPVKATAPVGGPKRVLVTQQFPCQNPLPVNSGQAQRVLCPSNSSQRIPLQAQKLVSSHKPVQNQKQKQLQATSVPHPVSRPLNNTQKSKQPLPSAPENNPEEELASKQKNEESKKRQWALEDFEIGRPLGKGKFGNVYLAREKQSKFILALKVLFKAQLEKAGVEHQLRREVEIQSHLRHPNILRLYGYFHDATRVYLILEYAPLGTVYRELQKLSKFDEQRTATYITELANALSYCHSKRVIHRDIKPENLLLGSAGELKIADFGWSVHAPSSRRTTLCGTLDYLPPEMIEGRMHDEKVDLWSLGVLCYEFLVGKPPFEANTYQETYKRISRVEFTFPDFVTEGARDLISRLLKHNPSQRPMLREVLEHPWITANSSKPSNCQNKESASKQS

[6] = biological target: T6, BrSK2 (Homo sapiens, UniProt Q8IWQ3); test: Kinome profiler screen; format: biochemical; settings: at 20,000 nM inhibitor; kinase activity remaining
T6 construct: purchased Millipore KinaseProfiler

[7] = biological target: T7, cKit(D816V) (Homo sapiens, UniProt P10721, D816V); test: Kinome profiler screen; format: biochemical; settings: at 20,000 nM inhibitor; kinase activity remaining
T7 construct: purchased Millipore KinaseProfiler

[8] = biological target: T8, cKit(V654A) (Homo sapiens, UniProt P10721, V654A); test: Kinome profiler screen; format: biochemical; settings: at 20,000 nM inhibitor; kinase activity remaining
T8 construct: purchased Millipore KinaseProfiler

[9] = biological target: T9, FGFR2 (Homo sapiens, UniProt P21802); test: Kinome profiler screen; format: biochemical; settings: at 20,000 nM inhibitor; kinase activity remaining
T9 construct: purchased Millipore KinaseProfiler

[10] = biological target: T10, GRK5 (Homo sapiens, UniProt P34947); test: Kinome profiler screen; format: biochemical
T10 construct: purchased Millipore KinaseProfiler
T10 sequence (P34947 whole entry): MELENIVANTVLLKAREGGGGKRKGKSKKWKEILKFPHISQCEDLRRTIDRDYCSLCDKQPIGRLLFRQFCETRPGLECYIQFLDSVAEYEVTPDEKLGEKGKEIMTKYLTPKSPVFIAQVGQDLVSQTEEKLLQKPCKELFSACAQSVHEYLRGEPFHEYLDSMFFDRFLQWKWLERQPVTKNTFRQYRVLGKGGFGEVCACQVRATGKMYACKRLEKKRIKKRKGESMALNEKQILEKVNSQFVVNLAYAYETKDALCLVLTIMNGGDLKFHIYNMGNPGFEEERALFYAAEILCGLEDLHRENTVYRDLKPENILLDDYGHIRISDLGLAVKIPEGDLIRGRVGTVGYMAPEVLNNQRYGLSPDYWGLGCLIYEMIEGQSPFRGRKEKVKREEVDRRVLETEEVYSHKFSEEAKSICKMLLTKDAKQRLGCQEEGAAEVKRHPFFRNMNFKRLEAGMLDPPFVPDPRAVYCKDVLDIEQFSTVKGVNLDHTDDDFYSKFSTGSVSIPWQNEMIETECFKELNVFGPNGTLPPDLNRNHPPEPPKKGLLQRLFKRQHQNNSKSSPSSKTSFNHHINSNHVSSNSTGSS

[11] = biological target: T11, GRK6 (Homo sapiens, UniProt P43250); test: Kinome profiler screen; format: biochemical
T11 construct: purchased Millipore KinaseProfiler

[12] = biological target: T12, Hck activated (Homo sapiens, UniProt P08631); test: Kinome profiler screen; format: biochemical; settings: at 20,000 nM inhibitor; kinase activity remaining
T12 construct: purchased Millipore KinaseProfiler

[13] = biological target: T13, IKKα (Homo sapiens, UniProt O15111); test: Kinome profiler screen; format: biochemical; settings: at 20,000 nM inhibitor; kinase activity remaining
T13 construct: purchased Millipore KinaseProfiler

[14] = biological target: T14, IRAK4 (Homo sapiens, UniProt Q9NWZ3); test: Kinome profiler screen; format: biochemical; settings: at 20,000 nM inhibitor; kinase activity remaining
T14 construct: purchased Millipore KinaseProfiler

[15] = biological target: T15, MRCKβ (Homo sapiens, UniProt Q9Y5S2); test: Kinome profiler screen; format: biochemical; settings: at 20,000 nM inhibitor; kinase activity remaining
T15 construct: purchased Millipore KinaseProfiler

[16] = biological target: T16, MST2 (Homo sapiens, UniProt Q13188); test: Kinome profiler screen; format: biochemical; settings: at 20,000 nM inhibitor; kinase activity remaining
T16 construct: purchased Millipore KinaseProfiler
T16 sequence (Q13188 whole entry): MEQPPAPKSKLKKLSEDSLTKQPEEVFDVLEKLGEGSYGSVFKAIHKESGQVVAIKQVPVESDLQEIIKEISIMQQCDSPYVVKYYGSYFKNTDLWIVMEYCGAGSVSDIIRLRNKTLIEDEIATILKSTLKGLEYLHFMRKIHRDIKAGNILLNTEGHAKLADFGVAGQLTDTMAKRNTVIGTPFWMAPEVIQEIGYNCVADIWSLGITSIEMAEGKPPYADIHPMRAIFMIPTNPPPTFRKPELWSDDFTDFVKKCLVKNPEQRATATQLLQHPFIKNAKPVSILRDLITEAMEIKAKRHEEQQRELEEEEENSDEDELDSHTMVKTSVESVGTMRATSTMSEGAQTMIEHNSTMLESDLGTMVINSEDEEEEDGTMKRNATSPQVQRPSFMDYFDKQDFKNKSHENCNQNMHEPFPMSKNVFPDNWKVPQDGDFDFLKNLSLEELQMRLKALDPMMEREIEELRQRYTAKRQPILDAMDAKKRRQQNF

[17] = biological target: T17, NEK6 (Homo sapiens, UniProt Q9HC98); test: Kinome profiler screen; format: biochemical; settings: at 20,000 nM inhibitor; kinase activity remaining
T17 construct: purchased Millipore KinaseProfiler

[18] = biological target: T18, NEK11 (Homo sapiens, UniProt Q8NG66); test: Kinome profiler screen; format: biochemical; settings: at 20,000 nM inhibitor; kinase activity remaining
T18 construct: purchased Millipore KinaseProfiler

[19] = biological target: T19, PAK4 (Homo sapiens, UniProt O96013); test: Kinome profiler screen; format: biochemical; settings: at 20,000 nM inhibitor; kinase activity remaining
T19 construct: purchased Millipore KinaseProfiler

[20] = biological target: T20, PDGFRα(V561D) (Homo sapiens, UniProt P16234, V561D); test: Kinome profiler screen; format: biochemical
T20 construct: purchased Millipore KinaseProfiler

[21] = biological target: T21, PI3 Kinase (p110α/p85α)(m) (Mus musculus, UniProt P42337); test: Kinome profiler screen; format: biochemical; settings: at 20,000 nM inhibitor; kinase activity remaining
T21 construct: purchased Millipore KinaseProfiler

[22] = biological target: T22, PI3 Kinase (p110α/p65α)(m) (Mus musculus, UniProt P42337); test: Kinome profiler screen; format: biochemical; settings: at 20,000 nM inhibitor; kinase activity remaining
T22 construct: purchased Millipore KinaseProfiler

[23] = biological target: T23, PI3 Kinase (p110 β/p85α)(m) (Mus musculus, UniProt Q8BTI9); test: Kinome profiler screen; format: biochemical; settings: at 20,000 nM inhibitor; kinase activity remaining
T23 construct: purchased Millipore KinaseProfiler

[24] = biological target: T24, PI3K-C2α (Homo sapiens, UniProt O00443); test: Kinome profiler screen; format: biochemical; settings: for activity at 20 µM: at 20,000 nM inhibitor, kinase activity remaining
T24 construct: purchased Millipore
T24 sequence (O00443 whole entry): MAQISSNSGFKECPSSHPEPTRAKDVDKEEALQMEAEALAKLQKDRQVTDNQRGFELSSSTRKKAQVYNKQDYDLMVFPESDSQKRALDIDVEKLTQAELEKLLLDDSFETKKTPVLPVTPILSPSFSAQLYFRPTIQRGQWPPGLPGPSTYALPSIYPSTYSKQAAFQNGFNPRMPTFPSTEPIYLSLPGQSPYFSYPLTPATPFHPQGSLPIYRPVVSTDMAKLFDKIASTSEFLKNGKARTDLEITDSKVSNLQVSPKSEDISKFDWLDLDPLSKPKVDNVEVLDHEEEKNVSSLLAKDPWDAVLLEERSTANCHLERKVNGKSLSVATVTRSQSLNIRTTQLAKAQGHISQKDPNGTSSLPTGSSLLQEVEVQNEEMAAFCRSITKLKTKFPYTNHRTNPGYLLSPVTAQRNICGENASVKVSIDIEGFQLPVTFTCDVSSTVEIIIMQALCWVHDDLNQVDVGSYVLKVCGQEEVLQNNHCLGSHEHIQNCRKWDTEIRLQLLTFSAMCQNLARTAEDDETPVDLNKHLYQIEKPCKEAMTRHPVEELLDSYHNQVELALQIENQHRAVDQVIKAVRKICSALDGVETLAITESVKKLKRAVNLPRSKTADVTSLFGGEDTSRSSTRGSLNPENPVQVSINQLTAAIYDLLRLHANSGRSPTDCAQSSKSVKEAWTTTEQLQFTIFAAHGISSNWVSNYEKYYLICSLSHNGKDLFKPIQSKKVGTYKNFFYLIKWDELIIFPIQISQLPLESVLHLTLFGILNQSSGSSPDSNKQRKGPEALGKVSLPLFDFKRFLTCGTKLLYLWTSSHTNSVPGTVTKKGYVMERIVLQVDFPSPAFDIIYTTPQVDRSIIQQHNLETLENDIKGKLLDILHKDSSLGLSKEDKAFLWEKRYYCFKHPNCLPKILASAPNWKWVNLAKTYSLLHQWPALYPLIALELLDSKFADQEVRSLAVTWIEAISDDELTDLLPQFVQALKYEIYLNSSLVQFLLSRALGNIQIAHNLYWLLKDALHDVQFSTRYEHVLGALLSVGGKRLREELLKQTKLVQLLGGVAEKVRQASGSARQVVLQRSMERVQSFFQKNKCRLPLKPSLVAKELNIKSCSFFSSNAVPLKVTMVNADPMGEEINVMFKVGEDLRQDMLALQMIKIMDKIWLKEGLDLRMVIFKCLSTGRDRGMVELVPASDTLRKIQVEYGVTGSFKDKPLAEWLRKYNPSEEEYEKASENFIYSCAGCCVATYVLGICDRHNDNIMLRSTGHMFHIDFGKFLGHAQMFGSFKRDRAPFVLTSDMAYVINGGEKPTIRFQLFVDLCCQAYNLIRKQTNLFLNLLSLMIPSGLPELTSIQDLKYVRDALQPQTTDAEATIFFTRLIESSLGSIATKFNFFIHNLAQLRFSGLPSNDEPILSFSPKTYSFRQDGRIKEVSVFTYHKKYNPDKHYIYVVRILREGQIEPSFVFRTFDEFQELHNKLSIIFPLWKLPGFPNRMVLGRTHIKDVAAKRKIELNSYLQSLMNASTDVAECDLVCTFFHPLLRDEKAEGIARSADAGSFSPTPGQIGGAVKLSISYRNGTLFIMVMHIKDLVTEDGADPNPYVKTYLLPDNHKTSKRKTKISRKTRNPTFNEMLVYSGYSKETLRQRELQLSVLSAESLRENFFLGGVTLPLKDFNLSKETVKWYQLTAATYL

[25] = biological target: T25, PIP4K2α (Homo sapiens, UniProt P48426); test: Kinome profiler screen; format: biochemical; settings: at 20,000 nM inhibitor; kinase activity remaining
T25 construct: purchased Millipore KinaseProfiler

[26] = biological target: T26, PKCβII (Homo sapiens, UniProt P05771); test: Kinome profiler screen; format: biochemical; settings: at 20,000 nM inhibitor; kinase activity remaining
T26 construct: purchased Millipore KinaseProfiler
T26 sequence (P05771 1-673 isoform P05771-2): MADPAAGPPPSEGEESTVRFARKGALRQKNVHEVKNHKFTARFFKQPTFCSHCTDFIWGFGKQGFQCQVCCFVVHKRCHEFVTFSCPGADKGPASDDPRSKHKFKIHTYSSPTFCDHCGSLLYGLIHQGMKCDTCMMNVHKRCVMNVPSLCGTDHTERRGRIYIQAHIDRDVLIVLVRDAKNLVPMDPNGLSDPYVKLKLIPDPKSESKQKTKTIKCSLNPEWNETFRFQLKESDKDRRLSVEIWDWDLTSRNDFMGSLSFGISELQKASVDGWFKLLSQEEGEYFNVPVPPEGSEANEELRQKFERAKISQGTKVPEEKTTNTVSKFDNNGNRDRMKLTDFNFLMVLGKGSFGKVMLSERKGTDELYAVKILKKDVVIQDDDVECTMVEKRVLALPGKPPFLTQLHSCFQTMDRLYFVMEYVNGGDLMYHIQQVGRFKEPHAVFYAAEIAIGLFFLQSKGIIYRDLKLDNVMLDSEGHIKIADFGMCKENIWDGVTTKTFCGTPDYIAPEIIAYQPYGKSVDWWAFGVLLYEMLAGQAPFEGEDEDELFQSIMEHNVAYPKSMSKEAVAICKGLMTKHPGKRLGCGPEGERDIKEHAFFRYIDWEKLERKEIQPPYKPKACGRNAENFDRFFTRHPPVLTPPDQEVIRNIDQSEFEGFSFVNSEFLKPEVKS

[27] = biological target: T27, PKCι (Homo sapiens, UniProt P41743); test: Kinome profiler screen; format: biochemical; settings: at 20,000 nM inhibitor; kinase activity remaining
T27 construct: purchased Millipore KinaseProfiler

[28] = biological target: T28, PKCμ (Homo sapiens, UniProt Q15139); test: Kinome profiler screen; format: biochemical; settings: at 20,000 nM inhibitor; kinase activity remaining
T28 construct: purchased Millipore KinaseProfiler

[29] = biological target: T29, PKG1α (Homo sapiens, UniProt Q13976); test: Kinome profiler screen; format: biochemical; settings: at 20,000 nM inhibitor; kinase activity remaining
T29 construct: purchased Millipore KinaseProfiler

[30] = biological target: T30, PRAK (Homo sapiens, UniProt Q8IW41); test: Kinome profiler screen; format: biochemical; settings: at 20,000 nM inhibitor; kinase activity remaining
T30 construct: purchased Millipore KinaseProfiler

[31] = biological target: T31, Ros (Homo sapiens, UniProt P08922); test: Kinome profiler screen; format: biochemical; settings: at 20,000 nM inhibitor; kinase activity remaining
T31 construct: purchased Millipore KinaseProfiler

[32] = biological target: T32, Rsk1(r) (Rattus norvegicus, UniProt Q63531); test: Kinome profiler screen; format: biochemical; settings: at 20,000 nM inhibitor; kinase activity remaining
T32 construct: purchased Millipore KinaseProfiler

[33] = biological target: T33, STK33 (Homo sapiens, UniProt Q9BYT3); test: Kinome profiler screen; format: biochemical; settings: at 20,000 nM inhibitor; kinase activity remaining
T33 construct: purchased Millipore KinaseProfiler

[34] = biological target: T34, Tec(h) activated (Homo sapiens, UniProt P42680); test: Kinome profiler screen; format: biochemical; settings: at 20,000 nM inhibitor; kinase activity remaining
T34 construct: purchased Millipore KinaseProfiler

[35] = biological target: T35, Tie2(R849W) (Homo sapiens, UniProt Q02763, R849W); test: Kinome profiler screen; format: biochemical; settings: at 20,000 nM inhibitor; kinase activity remaining
T35 construct: purchased Millipore KinaseProfiler
T35 sequence (Q02763 23-1124 R849W): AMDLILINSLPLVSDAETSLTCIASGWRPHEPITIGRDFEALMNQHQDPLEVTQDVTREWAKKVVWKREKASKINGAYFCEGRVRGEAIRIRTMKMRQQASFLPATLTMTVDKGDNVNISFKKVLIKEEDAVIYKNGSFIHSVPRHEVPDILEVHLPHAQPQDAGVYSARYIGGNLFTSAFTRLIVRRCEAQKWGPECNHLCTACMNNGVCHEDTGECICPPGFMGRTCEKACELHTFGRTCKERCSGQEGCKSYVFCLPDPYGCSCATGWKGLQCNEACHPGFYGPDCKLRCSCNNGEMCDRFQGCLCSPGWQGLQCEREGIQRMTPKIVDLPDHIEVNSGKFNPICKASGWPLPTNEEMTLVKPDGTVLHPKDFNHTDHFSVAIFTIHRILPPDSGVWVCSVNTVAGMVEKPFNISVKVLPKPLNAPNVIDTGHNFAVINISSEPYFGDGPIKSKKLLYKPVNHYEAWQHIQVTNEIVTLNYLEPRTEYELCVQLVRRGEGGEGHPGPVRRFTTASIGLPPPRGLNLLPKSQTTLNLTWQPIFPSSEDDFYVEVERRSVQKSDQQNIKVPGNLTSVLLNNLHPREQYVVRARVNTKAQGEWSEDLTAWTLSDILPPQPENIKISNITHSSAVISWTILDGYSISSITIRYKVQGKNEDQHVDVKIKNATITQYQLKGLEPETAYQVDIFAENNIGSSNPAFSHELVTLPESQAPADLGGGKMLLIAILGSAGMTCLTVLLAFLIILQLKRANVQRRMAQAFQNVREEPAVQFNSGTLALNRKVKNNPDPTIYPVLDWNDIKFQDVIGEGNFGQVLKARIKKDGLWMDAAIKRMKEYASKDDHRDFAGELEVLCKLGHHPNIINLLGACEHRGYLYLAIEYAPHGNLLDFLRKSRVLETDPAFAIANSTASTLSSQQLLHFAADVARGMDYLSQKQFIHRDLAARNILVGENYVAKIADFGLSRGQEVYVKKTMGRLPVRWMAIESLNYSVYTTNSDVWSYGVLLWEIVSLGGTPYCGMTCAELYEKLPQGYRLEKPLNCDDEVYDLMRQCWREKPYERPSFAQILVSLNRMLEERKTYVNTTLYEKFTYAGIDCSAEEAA

[36] = biological target: T36, TrkB (Homo sapiens, UniProt Q16620); test: Kinome profiler screen; format: biochemical
T36 construct: purchased Millipore KinaseProfiler

[37] = biological target: T37, ULK2 (Homo sapiens, UniProt Q8IYT8); test: Kinome profiler screen; format: biochemical; settings: at 20,000 nM inhibitor; kinase activity remaining
T37 construct: purchased Millipore KinaseProfiler

[38] = biological target: T38, VRK2 (Homo sapiens, UniProt Q86Y07); test: Kinome profiler screen; format: biochemical; settings: at 20,000 nM inhibitor; kinase activity remaining
T38 construct: purchased Millipore KinaseProfiler

[39] = tested on: >290 mammalian kinases; test: Hierarchal large-scale kinome screen, overall outcome; format: biochemical; settings: overall outcome in words
[40] = tested on: BV-2 cells; test: IL-1β production in BV-2 cells stimulated with TLR ligands; format: cell-based, murine; settings: ligands for TLR2, TLR4, TLR7/8, TLR9
[41] = tested on: CA3-CA1 long-term potentiation; test: LTP in Aβ42-treated hippocampal brain slices; set-up: species or system mice; settings: 10 µM compound, 200 nM Aβ42
[42] = tested on: exploratory behavior; test: Open-field test; format: in vivo, C57BL/6J mice; settings: time in and entries into center compartment; control test
[43] = at 20,000 nM inhibitor, kinase activity remaining, read-out: % Activity

Work on `CN(C)c1cc(-c2ccncc2)c(-c2cccc3ccccc23)nn1` [MW181, N,N-dimethyl-6-(naphthalen-1-yl)-5-(pyridin-4-yl)pyridazin-3-amine] yielded an activity at 20 µM [1] of 107%, an activity at 20 µM [2] of 108% and an activity at 20 µM [3] of 105%. For the same compound, the activity at 20 µM [4] was 103%, the activity at 20 µM [5] was 113% and the activity at 20 µM [6] was 105%. The activity at 20 µM [7] was 103%, the activity at 20 µM [8] was 83% and the activity at 20 µM [9] was 98%. The activity at 20 µM [10, 43] was 100%, the activity at 20 µM [11, 43] was 105% and the activity at 20 µM [12] was 106%. The activity at 20 µM [13] was 112%, the activity at 20 µM [14] was 100% and the activity at 20 µM [15] was 115%. It also gave an activity at 20 µM [16] of 105%, an activity at 20 µM [17] of 92% and an activity at 20 µM [18] of 121%. It also gave an activity at 20 µM [19] of 109%, an activity at 20 µM [20, 43] of 103% and an activity at 20 µM [21] of 102%. It also gave an activity at 20 µM [22] of 100%, an activity at 20 µM [23] of 101% and an activity at 20 µM [24] of 99%. It also gave an activity at 20 µM [25] of 97%, an activity at 20 µM [26] of 112% and an activity at 20 µM [27] of 82%. The activity at 20 µM [28] was 70%, the activity at 20 µM [29] was 97% and the activity at 20 µM [30] was 105%. For the same compound, the activity at 20 µM [31] was 110%, the activity at 20 µM [32] was 93% and the activity at 20 µM [33] was 99%. For the same compound, the activity at 20 µM [34] was 98%, the activity at 20 µM [35] was 99% and the activity at 20 µM [36, 43] was 109%. For the same compound, the activity at 20 µM [37] was 101%, the activity at 20 µM [38] was 86% and the “Large Scale Kinome Screen” value [39] was “p38αMAPK, p38βMAPK, and the atypical p38 kinase NLK as primary targets”. The “Large Scale Kinome Screen” value ([39]; listed as MW01-10-181SRM) was “negative except for the following MAPKs”, the “IL-1β production with diverse TLR ligands” value [40] was “suppressed IL-1β production” and the “LTP deficit in Aβ42-treated slices” value [41] was “ameliorated the LTP deficit”. For the same compound, the “exploratory behavior, open field” value [42] was “No differences in exploratory behavior”.
With `CN(C)c1cc(-c2ccncc2)c(-c2ccc3ccccc3c2)nn1` [MW108, N, N-dimethyl-6-(naphthalen-2-yl)-5-(pyridin-4-yl)pyridazin-3-amine] the activity at 20 µM [1] was 91%, the activity at 20 µM [2] was 98% and the activity at 20 µM [3] was 101%. For the same compound, the activity at 20 µM [4] was 98%, the activity at 20 µM [5] was 118% and the activity at 20 µM [6] was 88%. For the same compound, the activity at 20 µM [7] was 103%, the activity at 20 µM [8] was 106% and the activity at 20 µM [9] was 101%. For the same compound, the activity at 20 µM [10] was 110%, the activity at 20 µM [11] was 98% and the activity at 20 µM [12] was 97%. It also gave an activity at 20 µM [13] of 105%, an activity at 20 µM [14] of 91% and an activity at 20 µM [15] of 99%. The activity at 20 µM [16] was 98%, the activity at 20 µM [17] was 103% and the activity at 20 µM [18] was 108%. The activity at 20 µM [19] was 104%, the activity at 20 µM [20] was 114% and the activity at 20 µM [21] was 101%. For the same compound, the activity at 20 µM [22] was 101%, the activity at 20 µM [23] was 99% and the IC50 [24] was over 30 µM. It also gave an activity at 20 µM [24] of 29%, an activity at 20 µM [25] of 96% and an activity at 20 µM [26] of 87%. For the same compound, the activity at 20 µM [27] was 92%, the activity at 20 µM [28] was 70% and the activity at 20 µM [29] was 93%. For the same compound, the activity at 20 µM [30] was 94%, the activity at 20 µM [31] was 87% and the activity at 20 µM [32] was 91%. For the same compound, the activity at 20 µM [33] was 106%, the activity at 20 µM [34] was 89% and the activity at 20 µM [35] was 77%. For the same compound, the activity at 20 µM [36] was 78%, the activity at 20 µM [37] was 100% and the activity at 20 µM [38] was 83%. For the same compound, the “Large Scale Kinome Screen” value [39] was “only p38αMAPK as a potential target”, the “Large Scale Kinome Screen” value ([39]; listed as MW01-11-108SRM) was “negative except for p38αMAPK” and the “IL-1β production with diverse TLR ligands” value [40] was “suppressed IL-1β production”. The “LTP deficit in Aβ42-treated slices” value [41] was “ameliorated the LTP deficit” and the “exploratory behavior, open field” value [42] was “No differences in exploratory behavior”.
